Experimental findings from patent publication US7338958B2, “Sulfoximine-substituted pyrimidines as CDK-and/or VEGF inhibitors, their production and use as pharmaceutical agents” (Schering AG, priority 2003, dated 2008) are described below.

Test [1] relates to MCF7, hormone-independent human breast cancer cells. Kind of test: Proliferation assay, MCF7. It is filed as cell-based. The note with it: MCF7, 96 h, 4 days incubation, crystal violet. From the text: Cultivated human tumor cells (MCF7, hormone-independent human breast cancer cells, related to ATCC HTB22; NCI-H460, human non-small-cell lung cancer cells, ATCC HTB-177, HCT 116, human colon cancer cells, ATCC CCL-247; DU 145, hormone-independent human prostate cancer cells, ATCC HTB-81; MaTu-MDR, hormone-independent, multiple pharmaceutical agent-resistant human breast cancer cells, EPO-GmbH, Berlin) were flattened out at a density of about 5000 cells/measuring point, depending on the growth rate of the respective cells, in a 96-well multititer plate in 200 μl of the corresponding growth medium. After 24 hours, the cells of one plate (zero-point plate) were colored with crystal violet (see below), while the medium of the other plates was replaced by fresh culture medium (200 μl), to which the test substances were added in various concentrations (0 μm, as well as in the range of 0.01-30 μm; the final concentration of the solvent dimethyl sulfoxide was 0.5%). The cells were incubated for 4 days in the presence of test substances. The cell proliferation was determined by coloring the cells with crystal violet: the cells were fixed by adding 20 μl/measuring point of an 11% glutaric aldehyde solution for 15 minutes at room temperature. After three washing cycles of the fixed cells with water, the plates were dried at room temperature. The cells were colored by adding 100 μl/measuring point of a 0.1% crystal violet solution (the pH was set at 3 by adding acetic acid). After three washing cycles of the colored cells with water, the plates were dried at room temperature. The dye was dissolved by adding 100 μl/measuring point of a 10% acetic acid solution. The extinction was determined by photometry at a wavelength of 595 nm. The change of cell growth, in percent, was calculated by normalization of the measured values to the extinction values of the zero-point plate (=0%) and the extinction of the untreated (0 μm) cells (=100%).

The target in test [2] is T1, VEGF receptor tyrosine kinase-2 (Homo sapiens, UniProt P35968).
T1 construct: GST; made in house; host or cells: baculovirus-infected insect cells (Sf9)
The experiment in a line: VEGF Receptor-2 Kinase Assay. Type of test: biochemical. The note with it: poly-(Glu4Tyr) substrate, 33P-ATP, 10 minutes at 22° C.; read-out: VEGF-R2 IC50. On the procedure: VEGF Receptor-2 Kinase Assay
Recombinant VEGF receptor tyrosine kinase-2 was purified as a GST fusion protein from baculovirus-infected insect cells (Sf9). Poly-(Glu4Tyr), which was used as a kinase substrate, was purchased by the Sigma Company.
VEGF receptor tyrosine kinase (90 ng/measuring point) was incubated for 10 minutes at 22° C. in the presence of various concentrations of test substances (0 μm, as well as within the range of 0.001-30 μm) in 30 μl of assay buffer [40 mmol of Tris/HCl, […], 10 mmol of MgCl2, 1 mmol of MnCl2, 3 μmol of Na ortho-vanadate, 1.0 mmol of dithiothreitol, 8 μmol of adenosine trisphosphate (ATP), 27 μg/measuring point of poly-(Glu4Tyr), 0.2 μCi/measuring point of 33P-gamma ATP, 1% dimethyl sulfoxide]. The reaction was stopped by adding EDTA solution (250 mmol, pH 7.0, 10 μl/measuring point).
(§1) From each reaction batch, 10 μl was applied to P30 filter strips (Wallac Company), and non-incorporated 33P-ATP was removed by subjecting the filter strips to three washing cycles for 10 minutes each in 0.5% phosphoric acid. After the filter strips were dried for one hour at 70° C., the filter strips were covered with scintillator strips (MeltiLex™ A, Wallac Company) and baked for one hour at 90° C. The amount of incorporated 33P (substrate phosphorylation) was determined by scintillation measurement in a gamma-radiation measuring device (Wallac).

The next test addresses T2, CDK1/CycB (Homo sapiens, UniProt P06493).
T2 construct: GST; purchased ProQinase GmbH, Freiburg; host or cells: baculovirus-infected insect cells (Sf9)
Kind of test: CDK1/CycB Kinase Assay. It is filed as biochemical. Conditions: histone IIIS substrate, 33P-ATP, 15 minutes at 22° C. On the procedure:
Recombinant CDK1- and CycB-GST-fusion proteins, purified from baculovirus-infected insect cells (Sf9), were purchased from ProQinase GmbH, Freiburg. Histone IIIS, used as a kinase substrate, is available commercially from the Sigma Company.
The reaction was stopped by adding EDTA solution (250 mmol, pH 8.0, 14 μl/measuring point).
as §1

T2 sequence (P06493 whole entry): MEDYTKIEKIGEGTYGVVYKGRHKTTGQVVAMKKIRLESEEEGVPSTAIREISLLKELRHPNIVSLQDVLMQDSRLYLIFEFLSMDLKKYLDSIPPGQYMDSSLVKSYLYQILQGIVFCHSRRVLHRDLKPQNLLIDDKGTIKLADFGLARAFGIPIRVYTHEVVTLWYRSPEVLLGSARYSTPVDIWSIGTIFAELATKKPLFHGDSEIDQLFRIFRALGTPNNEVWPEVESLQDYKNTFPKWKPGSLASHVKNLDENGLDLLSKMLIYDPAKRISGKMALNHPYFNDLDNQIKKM
T2 sequence (P14635 whole entry partner): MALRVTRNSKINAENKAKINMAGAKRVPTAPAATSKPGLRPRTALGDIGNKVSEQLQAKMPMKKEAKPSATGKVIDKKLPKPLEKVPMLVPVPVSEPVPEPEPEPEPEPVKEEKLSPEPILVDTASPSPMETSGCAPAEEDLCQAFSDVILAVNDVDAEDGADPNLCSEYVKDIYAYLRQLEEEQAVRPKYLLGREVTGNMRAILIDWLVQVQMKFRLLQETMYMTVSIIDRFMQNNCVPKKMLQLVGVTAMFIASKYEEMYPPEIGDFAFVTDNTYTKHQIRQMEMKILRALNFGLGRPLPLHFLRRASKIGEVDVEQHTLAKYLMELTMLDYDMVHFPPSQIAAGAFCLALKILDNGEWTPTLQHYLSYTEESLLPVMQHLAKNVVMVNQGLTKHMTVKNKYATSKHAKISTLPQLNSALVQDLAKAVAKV
T1 sequence (P35968 20-1356): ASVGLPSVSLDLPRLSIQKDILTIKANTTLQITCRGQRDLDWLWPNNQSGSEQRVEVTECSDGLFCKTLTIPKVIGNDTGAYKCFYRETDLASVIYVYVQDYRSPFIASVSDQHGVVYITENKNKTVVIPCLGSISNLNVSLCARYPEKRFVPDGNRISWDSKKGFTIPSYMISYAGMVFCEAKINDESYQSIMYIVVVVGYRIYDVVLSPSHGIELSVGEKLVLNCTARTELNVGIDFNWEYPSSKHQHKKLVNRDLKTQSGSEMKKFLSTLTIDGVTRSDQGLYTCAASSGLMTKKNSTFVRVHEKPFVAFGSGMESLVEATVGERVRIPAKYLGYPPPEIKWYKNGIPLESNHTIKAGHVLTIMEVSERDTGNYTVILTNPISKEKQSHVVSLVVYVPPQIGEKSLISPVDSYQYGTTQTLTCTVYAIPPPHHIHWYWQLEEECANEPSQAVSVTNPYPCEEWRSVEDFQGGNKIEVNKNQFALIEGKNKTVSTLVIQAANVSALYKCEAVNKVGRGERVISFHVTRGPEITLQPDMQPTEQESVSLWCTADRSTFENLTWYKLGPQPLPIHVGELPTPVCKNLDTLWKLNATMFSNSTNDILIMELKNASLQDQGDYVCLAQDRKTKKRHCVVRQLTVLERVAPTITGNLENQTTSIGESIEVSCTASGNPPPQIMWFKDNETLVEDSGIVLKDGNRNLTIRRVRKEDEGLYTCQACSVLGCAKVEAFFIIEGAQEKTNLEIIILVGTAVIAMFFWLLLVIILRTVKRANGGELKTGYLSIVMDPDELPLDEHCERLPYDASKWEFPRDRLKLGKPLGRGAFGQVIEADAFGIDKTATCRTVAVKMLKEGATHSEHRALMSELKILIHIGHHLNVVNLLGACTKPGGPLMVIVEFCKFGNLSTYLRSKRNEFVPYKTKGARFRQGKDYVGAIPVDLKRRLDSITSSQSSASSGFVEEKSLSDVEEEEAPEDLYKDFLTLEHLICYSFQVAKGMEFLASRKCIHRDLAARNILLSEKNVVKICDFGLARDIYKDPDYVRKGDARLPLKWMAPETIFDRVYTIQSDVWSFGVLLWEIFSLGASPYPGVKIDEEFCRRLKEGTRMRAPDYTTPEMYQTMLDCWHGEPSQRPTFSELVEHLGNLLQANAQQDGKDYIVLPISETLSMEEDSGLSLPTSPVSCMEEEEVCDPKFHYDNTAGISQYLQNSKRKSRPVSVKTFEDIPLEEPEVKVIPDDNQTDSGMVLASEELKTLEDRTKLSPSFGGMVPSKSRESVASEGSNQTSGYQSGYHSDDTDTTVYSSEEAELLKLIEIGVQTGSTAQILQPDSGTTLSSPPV

Turning to `Cc1cc(Nc2ncc(Br)c(N[C@H](C)C(C)(C)O)n2)ccc1S(C)(=N)=O` (mixture of isomers) [Example 1.57, (RS)-S-[4-({5-bromo-4-[(R)-(2-hydroxy-1,2-dimethylpropyl)amino]pyrimidin-2-yl}amino)-2-methylphenyl]-S-methyl sulfoximide], the IC50 (usually the concentration that gives 50% inhibition) is less than 100 nM in test [1] and 66 nM in test [2].

Turning to `CCS(=N)(=O)c1ccc(Nc2ncc(Br)c(N[C@H](COC)[C@@H](C)O)n2)cc1` (mixture of isomers) [Example 1.50, (RS)-S-{4-[(5-bromo-4-{[(1R,2R)-2-hydroxy-1-(methoxymethyl)-propyl]amino}pyrimidin-2-yl)amino]phenyl}-S-ethyl sulfoximide], the IC50 in test [2] came out at 230 nM.

For the molecule `CC(O)CSc1nc(Nc2ccc(S(C)(=N)=O)cc2)ncc1Br` (racemic) [Example 3.4, (RS)-S-[4-({5-bromo-4-[(RS)-(2-hydroxy-propyl)sulfanyl]pyrimidin-2-yl}amino)phenyl]-S-methyl sulfoximide], the results for the IC50 (in test [1]; against CDK1/CycB) were 1000 nM and 72 nM, respectively.

`CCS(=N)(=O)c1ccc(Nc2ncc(Br)c(N[C@H](C)[C@@H](C)O)n2)cc1` (mixture of isomers) [Example 1.53, (RS)-S-[4-({5-bromo-4-[(1R,2R)-(2-hydroxy-1-methylpropyl)amino]pyrimidin-2-yl}amino)phenyl]-S-ethyl sulfoximide] gave a concentration for half-maximal inhibition (IC50) against CDK1/CycB of 11 nM.

As for `C[C@@H](O)[C@@H](C)Nc1nc(Nc2ccc(S(C)(=N)=O)cc2)ncc1Br` (mixture of isomers) [Example 1.43, (RS)-S-[4-({5-bromo-4-[(1R,2R)-(2-hydroxy-1-methylpropyl)amino]pyrimidin-2-yl}amino)phenyl]-S-methyl sulfoximide], in test [1], the concentration for half-maximal inhibition (IC50) is less than 100 nM.

On to `COC[C@@H](Nc1nc(Nc2ccc(S(C)(=N)=O)cc2)ncc1Br)[C@@H](C)O` (mixture of isomers) [Example 1.47, (RS)-S-{4-[(5-bromo-4-{[(1R,2R)-2-hydroxy-1-(methoxymethyl)-propyl]amino}pyrimidin-2-yl)amino]phenyl}-S-methyl sulfoximide], for which the midpoint of inhibition against CDK1/CycB, the IC50, lay at 27 nM.

As for `CCS(=N)(=O)c1ccc(Nc2ncc(Br)c(N[C@H](COC)[C@@H](C)O)n2)cc1` (mixture of isomers) [Example 1.49, (RS)-S-{4-[(5-bromo-4-{[(1R,2R)-2-hydroxy-1-(methoxymethyl)-propyl]amino}pyrimidin-2-yl)amino]phenyl}-S-ethyl sulfoximide], the IC50 in test [2] was 470 nM.

As for `C[C@@H](O)[C@@H](C)Oc1nc(Nc2ccc(S(=N)(=O)CCO)cc2)ncc1Br` (mixture of isomers) [Example 1.21, (RS)-S-[4-({5-bromo-4-[(1R,2R)-2-hydroxy-1-methyl-propoxy]pyrimidin-2-yl}amino)phenyl]-S-(2-hydroxyethyl)sulfoximide], the half-maximal inhibitory concentration (IC50) in test [1] is less than 100 nM; against CDK1/CycB, 5 nM.

`Cc1cc(Nc2ncc(Br)c(N[C@H](C)C(C)(C)O)n2)ccc1S(C)(=N)=O` (mixture of isomers) [Example 1.58, (RS)-S-[4-({5-bromo-4-[(R)-(2-hydroxy-1,2-dimethylpropyl)amino]pyrimidin-2-yl}amino)-2-methylphenyl]-S-methyl sulfoximide]: in test [2], the IC50 came out at 45 nM.

Turning to `Cc1cc(Nc2ncc(Br)c(N[C@H](C)C(C)(C)O)n2)ccc1S(C)(=N)=O` (mixture of isomers) [Example 1.59, (RS)-S-[4-({5-bromo-4-[(R)-(2-hydroxy-1,2-dimethylpropyl)amino]pyrimidin-2-yl}amino)-2-methylphenyl]-S-methyl sulfoximide], the concentration for half-maximal inhibition (IC50) in test [2] worked out at 48 nM.

Take `COc1cc(Nc2ncc(Br)c(N[C@H](C)[C@@H](C)O)n2)ccc1S(C)(=N)=O` (single isomer, unassigned) [Example 1.25]: the IC50 in test [1] is less than 100 nM.
